Experimental data published in patent US9498465B2, “Topical compositions in the form of a gel containing a particular solubilized retinoid” (GALDERMA RESEARCH & DEVELOPMENT, priority 2012, dated 2016).

Legend:
Type in all cases: physicochemical
[1] = Maximum solubility in hydrophilic excipients, determined by HPLC
Protocol: In order to produce an aqueous-glycolic gel containing an amount of ethanol of less than 30%, in which compound A is solubilized, pre-formulation studies were carried out in order to reveal the excipients enabling good solubilization and also good stability of the active agent. • (1) List of the hydrophilic excipients or mixture of hydrophilic excipients in which maximum solubility was determined by HPLC: […]

[2] = Stability of compound A in its principal solvents and cosolvents, determined by HPLC
[3] = Tests introducing ST-cyclomethicone 5NF: recrystallization of compound A
Protocol: In order to obtain an acceptable feel for acne (non-greasy, non-tacky) while at the same time keeping good solubility of compound A in the formula, tests introducing ST-cyclomethicone 5 were carried out, in the knowledge that ST-cyclomethicone 5NF is a nonsolvent of compound A and that this addition may therefore cause recrystallization of compound A: […]

Q: Which “Maximum solubility as %” value ([1]; in Arlasolve DMI (Dimethyl Isosorbide)) does the source give for `CC(C)(C)c1cc(-c2cc(-c3ccc(C(=O)O)cc3)ccc2OCCO)ccc1N1CCCC1` [Compound A, 3″-tert-butyl-4′-(2-hydroxyethoxy)-4″-pyrrolidin-1-yl[1,1′;3′,1″]terphenyl-4-carboxylic acid] here?
A: 0.4%

Q: And the “Maximum solubility as %” value ([1]; in Benzyl Alcohol)?
A: 2.3880%

Q: What about the “Maximum solubility as %” value ([1]; in Dipropylene Glycol Care (Dipropylene Glycol)) of the same compound?
A: 0.4%

Q: What about the “Maximum solubility as %” value ([1]; in Ethanol 95-96%) of the same compound?
A: 0.92%

Q: What about the “Maximum solubility as %” value ([1]; in Glycerine (Glycerin)) of the same compound?
A: 0.002%

Q: And the “Maximum solubility as %” value ([1]; in Hexylene Glycol)?
A: 0.4%

Q: What about the “Maximum solubility as %” value ([1]; in Hydrolite 5P (Pentylene glycol)) of the same compound?
A: 0.482%

Q: What about the “Maximum solubility as %” value ([1]; in PEG 400 (Peg-8)) of the same compound?
A: 1.52%

Q: And the “Maximum solubility as %” value ([1]; in Pharmasolve (Methyl Pyrolidone))?
A: 4.84%

Q: And the “Maximum solubility as %” value ([1]; in Phenoxetol (Phenoxyethanol))?
A: 1.957%

Q: What about the “Maximum solubility as %” value ([1]; in Propylene Glycol) of the same compound?
A: 0.111%

Q: What about the “Maximum solubility as %” value ([1]; in Transcutol (Ethoxy diglycol)) of the same compound?
A: 4.17%

Q: And the “Solubility (in words)” value ([1]; in glycerine)?
A: virtually insoluble

Q: What about the Stability results ([2]; 0.001% in Hexylene Glycol) of the same compound?
A: Unstable

Q: What about the Stability results ([2]; 0.005% in Ethanol 95-96%) of the same compound?
A: Stable

Q: And the Stability results ([2]; 0.005% in Ethanol 95-96%, listed as compound A)?
A: stable

Q: And the Stability results ([2]; 0.01% in Benzyl Alcohol)?
A: Unstable

Q: What about the Stability results ([2]; 0.03% in Arlasolve DMI (Dimethyl Isosorbide)) of the same compound?
A: Unstable

Q: And the Stability results ([2]; 0.03% in Hydrolite 5P (Pentylene glycol))?
A: Unstable

Q: And the Stability results ([2]; 0.03% in Pharmasolve (Methyl Pyrolidone))?
A: Unstable

Q: And the Stability results ([2]; 0.03% in Transcutol (Ethoxy diglycol))?
A: Unstable

Q: And the Stability results ([2]; 0.05% in Phenoxetol (Phenoxyethanol))?
A: Stable

Q: And the Stability results ([2]; 0.05% in Phenoxetol (Phenoxyethanol), listed as compound A)?
A: stable

Q: What about the Stability results ([2]; 0.05% in Propylene Glycol, listed as COMPOUND A) of the same compound?
A: Stable

Q: And the Stability results ([2]; 0.05% in Propylene Glycol, listed as compound A)?
A: stable

Q: What about the Stability results ([2]; 0.3% in Dipropylene Glycol Care (Dipropylene Glycol), listed as COMPOUND A) of the same compound?
A: Stable

Q: And the Stability results ([2]; 0.3% in Dipropylene Glycol Care (Dipropylene Glycol), listed as compound A)?
A: stable

Q: And the Stability results ([2]; 0.3% in PEG 400 (Poly Ethylene Glycol))?
A: Unstable

Q: What about the “Recrystallization of COMPOUND A” value ([3]; formula with ST-Cyclomethicone 5NF 0%) of the same compound?
A: No

Q: And the “Recrystallization of COMPOUND A” value ([3]; formula with ST-Cyclomethicone 5NF 2%)?
A: No

Q: What about the “Recrystallization of COMPOUND A” value ([3]; formula with ST-Cyclomethicone 5NF 5%) of the same compound?
A: Re-

Q: And the “Solubility (in words)” value ([3]; in ST-cyclomethicone 5NF)?
A: nonsolvent
